Laboratory results as given in US20240400572A1, “COMPOUNDS AND METHODS FOR TREATING CANCERS THAT ARE MGMT DEFICIENT REGARDLESS OF MMR STATUS” (Yale University, priority 2021, published 2024).

How the values were obtained:
[1] = test system: BJ fibroblast cells; assay: Short-term cell viability in normal fibroblasts; type: cell-based, human; conditions: KL-50 compared with TMZ
Protocol: Cell Culture. LN229 MGMT− and MGMT+ cell lines were a gift from B. Kaina (Johannes Gutenberg University Mainz, Mainz, Germany) and grown in DMEM with 10% FBS (Gibco). DLD1 BRCA2+/− and BRCA2−/− cell lines (Horizon Discovery, Cambridge, UK) were grown in RPMI 1640 with 10% FBS. HCT116 MLH1−/− and HCT116+Chr3 cell lines were a gift from T. Kunkel (National Institute of Environmental Health Sciences, Durham, NC) and grown in DMEM with 10% FBS, with […] G418 (Sigma) for HCT116+Chr3 cells. PD20 cell lines complemented with empty vector (+EV), wildtype FANCD2 (+FD2), or K561R ubiquitination-mutant FANCD2 (+KR) were a gift from G. Kupfer and P. Glazer (Yale University, New Haven, CT) and growth in DMEM with 10% FBS. PEO1 and PEO4 cell lines were a gift from T. Taniguchi (Fred Hutchinson Cancer Research Center, Seattle, WA) and were grown in DMEM with 10% FBS. BJ fibroblasts (normal human fibroblast cells) were purchased from ATCC (CRL-2522) and grown in DMEM with 10% FBS. […] All human cell lines were validated by short tandem repeat profiling (excluding BJ fibroblasts which were used within 6 passages of receiving from ATCC) and confirmed negative for mycoplasma by quantitative RT-PCR.
Short-term Cell Viability Assay. […] Cells were imaged on a Cytation 3 imaging reader (BioTek) and quantified using CellProfiler software.

[2] = test system: linearized pUC19 plasmid DNA; assay: In vitro DNA cross-linking assay; type: biochemical; conditions: 100 μM, 6-36 hours
Protocol: Plasmid Linearization Assay. To set up the linearization reactions, 20 units of EcoRI-HF (New England Biolabs) was mixed with 20 μg 2686 bp pUC19 vector DNA in CutSmart buffer (New England Biolabs), pH 7.9, in a total volume of 1000 μL for 30 min at 37° C. The CutSmart buffer contains 50 mM potassium acetate, 20 mM Tris acetate, 10 mM magnesium acetate, and 100 μg/mL BSA. The reacted DNA was then purified using PCR cleanup kit and quantified using the NanoDrop One (Thermo Fisher). The DNA was then stored at −20° C. before use in in vitro DNA cross-linking assays or melting temperature analysis.
In Vitro DNA Cross-linking Assays. Linearized pUC19 DNA, prepared as described above, was used for in vitro DNA cross-linking assays. For each condition, 200 ng of linearized pUC19 DNA (15.4 μM base pairs) was incubated with the indicated concentration of drug in 20 μL. Drug stock concentrations were made in DMSO such that each reaction contained a fixed 5% DMSO concentration. Reactions were conducted in 100 mM Tris buffer (pH 7.4). Cisplatin (Sigma) and DMSO vehicle were used as positive and negative controls, respectively. Reactions were conducted between 3-96 h at 37° C. The DNA was stored at −80° C. until electrophoretic analysis. For gel electrophoresis, DNA concentration was preadjusted to 10 ng/μL. […]

[3] = test system: WT and XPA-deficient MEFs; assay: Short-term cell viability assay in NER isogenic MEFs; type: cell-based, mouse; conditions: WT versus XPA-deficient MEFs, ± MGMT depletion with O6BG
Protocol: FIGS. ZS5A-ZS5D. […] Columns, mean; error bars, SD; n=2 independent analyses. For (FIG. ZS5A) and (FIG. ZS5C), points, mean; error bars, SD; n=3 technical replicates.
Short-term Cell Viability Assay. Cells were seeded in 96-well plates at 1000 or 2000 cells/well and allowed to adhere at 23° C. for 60 min and then incubated overnight at 37° C. Cells were treated with indicated concentrations of compounds in triplicate for 4-6 days prior to fixation with 3.7% paraformaldehyde and nuclear staining with 1 μg/mL Hoechst 33342 dye. Cells were imaged on a Cytation 3 imaging reader (BioTek) and quantified using CellProfiler software.

[4] = Maximum tolerated dose study; type: in vivo
Protocol: Healthy mice were treated with escalating doses of KL-50 (4a) (0, 25, 50, 100, and 200 mg/kg×1 dose), and monitored over time for changes in both weights and hematologic profiles. […] As the main dose limiting systemic toxicity of TMZ (1a) is myelosuppression, we measured complete blood counts for all mice on day 0 before treatment and subsequently on day 7 after drug administration.

[5] = test system: O^6-guanine adducts in cellular DNA; conditions: dose of 20 μM; cited from earlier work

NC(=O)c1ncn2c(=O)n(CCF)nnc12 [KL-50, 3-(2-fluoroethyl)-4-oxo-3H,4H-imidazo[4,3-d][1,2,3,5]tetrazine-8-carboxamide]
cytotoxicity in normal human fibroblast cells (in words) [1]: no increase in toxicity | ICLs in plasmid DNA (in words) [2]: possessed ICLs, with delayed rates of formation relative to 12b | sensitivity of XPA deficient cells (in words) [3]: absence of additional sensitivity | mice observably ill warranting euthanasia ([4]; 200 mg/kg × 1 dose): Two of three mice | weight loss ([4]; 100 or 200 mg/kg × 1 dose, regressed to baseline at the end of one week): greater than 10% | toxicity in the remaining cohorts (in words) ([4]; cohorts below 200 mg/kg × 1 dose): no evidence of toxicity | complete blood counts (in words) ([4]; day 7 after drug administration, all cohorts): within normal physiological ranges | tolerability (in words) ([4]; healthy mice, 0, 25, 50, 100, and 200 mg/kg × 1 dose): well-tolerated

Cn1nnc2c(C(N)=O)ncn2c1=O [TMZ, temozolomide, reference compound]
O^6MeG (3) adducts per cell [5]: 20,600
